# According to patent US3960877A, “N-monosubstituted-2,3-pyridinedicarboxamides, and related compounds” (priority 1974, dated 1976):
# Key:
# Assay type in all cases: in vivo
# Cucumber [1] = assay: Postemergence herbicidal activity, % control of plant growth; details: Cucumis sativus, post-emergence, 264 h, 8 lb/acre, about 11 days
# Source text: (§1) By the term "postemergence" is meant that the compound is applied to the plant sought to be controlled after it has emerged from the soil surface. This term is also used to describe the application of herbicidally active compounds to soil surface in and around growing plants sought to be controlled for purposes of effecting root absorption by the undesirable plant species.
# (§2) In the postemergence test the soil and developing plants were sprayed approximately 2 weeks after the seeds were sown. The compound was applied at the rate of 8 pounds per acre from about a 2 percent by weight solution of the test compound in acetone and/or alcohol. The postemergence herbicidal activity was measured in the same way as the preemergence activity; i.e. visual observation approximately 11 days after spraying, and expressed as the percent control of plant growth.
# (§3) **Postemergence test: compound applied at rate of 8 lb/acre
# Velvetleaf [2] = assay: as above; details: Abutilon theophrasti, post-emergence, 264 h, 8 lb/acre, about 11 days
# Source text: as §1, §2, §3
# Nutgrass [3] = assay: as above; details: post-emergence, 264 h, 8 lb/acre, about 11 days
# Source text: as §1, §2, §3
# Cheatgrass [4] = assay: as above; details: Bromus tectorum, post-emergence, 264 h, 8 lb/acre, about 11 days
# Source text: as §1, §2, §3
# Barnyard Grass [5] = assay: as above; details: Echinochloa crus-galli, post-emergence, 264 h, 8 lb/acre, about 11 days
# Source text: as §1, §2, §3
# Curled Dock [6] = assay: as above; details: post-emergence, 264 h, 8 lb/acre, about 11 days
# Source text: as §1, §2, §3
# Wild Oats [7] = assay: as above; details: Avena fatua, post-emergence, 264 h, 8 lb/acre, about 11 days
# Source text: as §1, §2, §3
# Yellow Rocket [8] = assay: as above; details: post-emergence, 264 h, 8 lb/acre, about 11 days
# Source text: as §1, §2, §3
# Snapbeans [9] = assay: as above; details: post-emergence, 264 h, 8 lb/acre, about 11 days
# Source text: as §1, §2, §3
# Corn [10] = assay: as above; details: Zea mays, post-emergence, 264 h, 8 lb/acre, about 11 days
# Source text: as §1, §2, §3
# Pigweed [11] = assay: as above; details: Amaranthus retroflexus, post-emergence, 264 h, 8 lb/acre, about 11 days
# Source text: as §1, §2, §3
# Johnsongrass [12] = assay: as above; details: Sorghum halepense, post-emergence, 264 h, 8 lb/acre, about 11 days
# Source text: as §1, §2, §3
# Crabgrass [13] = assay: as above; details: Digitaria sanguinalis, post-emergence, 264 h, 8 lb/acre, about 11 days
# Source text: as §1, §2, §3
# Foxtail [14] = assay: as above; details: Setaria, post-emergence, 264 h, 8 lb/acre, about 11 days
# Source text: as §1, §2, §3
# Alfalfa [15] = assay: as above; details: Medicago sativa, post-emergence, 264 h, 8 lb/acre, about 11 days
# Source text: as §1, §2, §3
# Lambsquarters [16] = assay: as above; details: Chenopodium album, post-emergence, 264 h, 8 lb/acre, about 11 days
# Source text: as §1, §2, §3
# Chickweed [17] = assay: as above; details: post-emergence, 264 h, 8 lb/acre, about 11 days
# Source text: as §1, §2, §3
# Cucumber [18] = assay: Preemergence herbicidal activity, % control of plant growth; details: for pest or weed control at 17933.6 g/ha: Cucumis sativus, pre-emergence, 504 h, 16 lb/acre, about 3 weeks
# Source text: (§4) By "preemergence" is meant that the compound is applied to the soil prior to emergence of the weed species sought to be controlled. This term, as used herein, also means the application of the herbicidal compounds falling within the scope of this disclosure to areas wherein useful or desirable plants are either growing or have been sown, but where the undesirable plants sought to be controlled have not as yet emerged.
# (§5) In using the compound, seeds of the types of plants set forth in Table II were sown in fresh soil. In the preemergence test the soil was sprayed with a solution of the test compound immediately after the seeds were planted, and before any noticeable growth developed. The solution was about a 2 percent by weight solution of the compound in acetone and/or alcohol. The compound was applied at the rate of 16 pounds per acre of soil surface.
# (§6) Approximately 3 weeks after spray application, the herbicidal activity of the compound was determined by visual observation of the treated area in comparison with untreated control areas. These observations are reported below in Table II wherein the average activity rating is reported as the percent control of plant growth.
# (§7) *Preemergence test: compound applied at rate of 16 lb/acre
# Velvetleaf [19] = assay: as above; details: Abutilon theophrasti, pre-emergence, 504 h, 16 lb/acre, about 3 weeks
# Source text: as §4, §5, §6, §7
# Nutgrass [20] = assay: as above; details: pre-emergence, 504 h, 16 lb/acre, about 3 weeks
# Source text: as §4, §5, §6, §7
# Cheatgrass [21] = assay: as above; details: for pest or weed control at 17933.6 g/ha: Bromus tectorum, pre-emergence, 504 h, 16 lb/acre, about 3 weeks
# Source text: as §4, §5, §6, §7
# Barnyard Grass [22] = assay: as above; details: Echinochloa crus-galli, pre-emergence, 504 h; barnyard grass; 16 lb/acre; about 3 weeks
# Source text: as §4, §5, §6, §7
# Curled Dock [23] = assay: as above; details: for pest or weed control at 17933.6 g/ha: pre-emergence, 504 h, 16 lb/acre, about 3 weeks
# Source text: as §4, §5, §6, §7
# Wild Oats [24] = assay: as above; details: Avena fatua, pre-emergence, 504 h, 16 lb/acre, about 3 weeks
# Source text: as §4, §5, §6, §7
# Yellow Rocket [25] = assay: as above; details: pre-emergence, 504 h, 16 lb/acre, about 3 weeks
# Source text: as §4, §5, §6, §7
# Snapbeans [26] = assay: as above; details: for pest or weed control at 17933.6 g/ha: pre-emergence, 504 h, 16 lb/acre, about 3 weeks
# Source text: as §4, §5, §6, §7
# Corn [27] = assay: as above; details: for plant injury at 17933.6 g/ha: Zea mays, pre-emergence, 504 h, 16 lb/acre, about 3 weeks
# Source text: as §4, §5, §6, §7
# Pigweed [28] = assay: as above; details: for pest or weed control at 17933.6 g/ha: Amaranthus retroflexus, pre-emergence, 504 h, 16 lb/acre, about 3 weeks
# Source text: as §4, §5, §6, §7
# Johnsongrass [29] = assay: as above; details: Sorghum halepense, pre-emergence, 504 h, 16 lb/acre, about 3 weeks
# Source text: as §4, §5, §6, §7
# Crabgrass [30] = assay: as above; details: for pest or weed control at 17933.6 g/ha: Digitaria sanguinalis, pre-emergence, 504 h, 16 lb/acre, about 3 weeks
# Source text: as §4, §5, §6, §7
# Foxtail [31] = assay: as above; details: Setaria, pre-emergence, 504 h, 16 lb/acre, about 3 weeks
# Source text: as §4, §5, §6, §7
# Alfalfa [32] = assay: as above; details: for pest or weed control at 17933.6 g/ha: Medicago sativa, pre-emergence, 504 h, 16 lb/acre, about 3 weeks
# Source text: as §4, §5, §6, §7
# Lambsquarters [33] = assay: as above; details: for pest or weed control at 17933.6 g/ha: Chenopodium album, pre-emergence, 504 h, 16 lb/acre, about 3 weeks
# Source text: as §4, §5, §6, §7
# Chickweed [34] = assay: as above; details: for pest or weed control at 17933.6 g/ha: pre-emergence, 504 h, 16 lb/acre, about 3 weeks
# Source text: as §4, §5, §6, §7
structure (smiles),measurement,setting,value
"C=CCn1c(=O)[nH]c2cccnc2c1=O [3-allyl-pyrido[3,2-d]pyrimidine-2,4(1H,3H)-dione]",pest or weed control at 8966.8 g/ha,Cucumber [1],100%
same,pest or weed control at 8966.8 g/ha,Velvetleaf [2],100%
same,pest or weed control at 8966.8 g/ha,Nutgrass [3],30%
same,pest or weed control at 8966.8 g/ha,Cheatgrass [4],30%
same,pest or weed control at 8966.8 g/ha,Barnyard Grass [5],100%
same,pest or weed control at 8966.8 g/ha,Curled Dock [6],100%
same,pest or weed control at 8966.8 g/ha,Wild Oats [7],20%
same,pest or weed control at 8966.8 g/ha,Yellow Rocket [8],100%
same,pest or weed control at 8966.8 g/ha,Snapbeans [9],100%
same,plant injury at 8966.8 g/ha,Corn [10],30%
same,pest or weed control at 8966.8 g/ha,Pigweed [11],100%
same,pest or weed control at 8966.8 g/ha,Johnsongrass [12],100%
same,pest or weed control at 8966.8 g/ha,Crabgrass [13],100%
same,pest or weed control at 8966.8 g/ha,Foxtail [14],100%
same,pest or weed control at 8966.8 g/ha,Alfalfa [15],100%
same,pest or weed control at 8966.8 g/ha,Lambsquarters [16],100%
same,pest or weed control at 8966.8 g/ha,Chickweed [17],100%
same,pest or weed control at 17933.6 g/ha,Cucumber [18],100%
same,pest or weed control at 17933.6 g/ha,Velvetleaf [19],90%
same,pest or weed control at 17933.6 g/ha,Nutgrass [20],20%
same,pest or weed control at 17933.6 g/ha,Cheatgrass [21],100%
same,pest or weed control at 17933.6 g/ha,Barnyard Grass [22],90%
same,pest or weed control at 17933.6 g/ha,Curled Dock [23],100%
same,pest or weed control at 17933.6 g/ha,Wild Oats [24],100%
same,pest or weed control at 17933.6 g/ha,Yellow Rocket [25],100%
same,pest or weed control at 17933.6 g/ha,Snapbeans [26],100%
same,plant injury at 17933.6 g/ha,Corn [27],50%
same,pest or weed control at 17933.6 g/ha,Pigweed [28],100%
same,pest or weed control at 17933.6 g/ha,Johnsongrass [29],90%
same,pest or weed control at 17933.6 g/ha,Crabgrass [30],100%
same,pest or weed control at 17933.6 g/ha,Foxtail [31],90%
same,pest or weed control at 17933.6 g/ha,Alfalfa [32],100%
same,pest or weed control at 17933.6 g/ha,Lambsquarters [33],100%
same,pest or weed control at 17933.6 g/ha,Chickweed [34],100%
"O=c1[nH]c2cccnc2c(=O)n1Cc1ccccc1 [3-benzyl-pyrido[3,2-d]pyrimidine-[2,4(1H,3H)-dione]",pest or weed control at 8966.8 g/ha,Cucumber [1],10%
same,pest or weed control at 8966.8 g/ha,Velvetleaf [2],30%
same,pest or weed control at 8966.8 g/ha,Nutgrass [3],0%
same,pest or weed control at 8966.8 g/ha,Cheatgrass [4],0%
same,pest or weed control at 8966.8 g/ha,Barnyard Grass [5],0%
same,pest or weed control at 8966.8 g/ha,Curled Dock [6],0%
same,pest or weed control at 8966.8 g/ha,Wild Oats [7],0%
same,pest or weed control at 8966.8 g/ha,Yellow Rocket [8],70%
same,pest or weed control at 8966.8 g/ha,Snapbeans [9],0%
same,plant injury at 8966.8 g/ha,Corn [10],0%
same,pest or weed control at 8966.8 g/ha,Pigweed [11],100%
same,pest or weed control at 8966.8 g/ha,Johnsongrass [12],0%
same,pest or weed control at 8966.8 g/ha,Crabgrass [13],40%
same,pest or weed control at 8966.8 g/ha,Foxtail [14],0%
same,pest or weed control at 8966.8 g/ha,Alfalfa [15],0%
same,pest or weed control at 8966.8 g/ha,Lambsquarters [16],60%
same,pest or weed control at 8966.8 g/ha,Chickweed [17],100%
same,herbicidal activity/control,Cucumber [18]; 16 pounds per acre,no preemergence herbicidal activity
same,pest or weed control at 17933.6 g/ha,Cucumber [18],0%
same,pest or weed control at 17933.6 g/ha,Velvetleaf [19],90%
same,pest or weed control at 17933.6 g/ha,Nutgrass [20],0%
same,herbicidal activity/control,Cheatgrass [21]; 16 pounds per acre,total preemergence activity
same,pest or weed control at 17933.6 g/ha,Cheatgrass [21],100%
same,pest or weed control at 17933.6 g/ha,Barnyard Grass [22],90%
same,herbicidal activity/control,Curled Dock [23]; 16 pounds per acre,total preemergence activity
same,pest or weed control at 17933.6 g/ha,Curled Dock [23],100%
same,pest or weed control at 17933.6 g/ha,Wild Oats [24],30%
same,pest or weed control at 17933.6 g/ha,Yellow Rocket [25],90%
same,herbicidal activity/control,Snapbeans [26]; 16 pounds per acre,no preemergence herbicidal activity
same,pest or weed control at 17933.6 g/ha,Snapbeans [26],10%
same,herbicidal activity/control,Corn [27]; 16 pounds per acre,no preemergence herbicidal activity
same,plant injury at 17933.6 g/ha,Corn [27],10%
same,herbicidal activity/control,Pigweed [28]; 16 pounds per acre,total preemergence activity
same,pest or weed control at 17933.6 g/ha,Pigweed [28],100%
same,pest or weed control at 17933.6 g/ha,Johnsongrass [29],90%
same,herbicidal activity/control,Crabgrass [30]; 16 pounds per acre,total preemergence activity
same,pest or weed control at 17933.6 g/ha,Crabgrass [30],100%
same,pest or weed control at 17933.6 g/ha,Foxtail [31],90%
same,herbicidal activity/control,Alfalfa [32]; 16 pounds per acre,total preemergence activity
same,pest or weed control at 17933.6 g/ha,Alfalfa [32],100%
same,herbicidal activity/control,Lambsquarters [33]; 16 pounds per acre,total preemergence activity
same,pest or weed control at 17933.6 g/ha,Lambsquarters [33],100%
same,herbicidal activity/control,Chickweed [34]; 16 pounds per acre,total preemergence activity
same,pest or weed control at 17933.6 g/ha,Chickweed [34],100%
